Reference: patent US20090312288A1 (TAKEDA PHARMACEUTICAL COMPANY LIMITED, priority 2008, published 2009)

Target: Aurora B/INCENP (Homo sapiens, UniProt Q96GD4)
Experiment: Determination of inhibition of AIK: Aurora B/INCENP direct fluorescence polarization (IMAP) assay
Format: biochemical
Details: 10 uM ATP, 0.8 nM Aurora B/INCENP; values given as bins; read-out: IC50 of Exemplified Compounds Against AIK B
Method: Detection of the reaction product is performed by addition of Progressive IMAP binding reagent (Molecular Devices). Reaction product may be determined quantitatively by FP using an Analyst HT plate reader (Molecular Devices) with an excitation wavelength at 485 nm and emission at 530 nm and using a Fluorescein 505 dichroic mirror.
The assay reaction may be initiated as follows: 2 ul of (3×) 300 nM Fl-Peptide/30 uM ATP was added to each well of the plate, followed by the addition of 2 ul of (3×) inhibitor (2 fold serial dilutions for 11 data points for each inhibitor) containing 15% DMSO. Two microliters of (3×) 2.4 nM AuroraB/INCENP solution may be added to initiate the reaction (final enzyme concentration was 0.8 nM for Aurora B/INCENP). The reaction mixture may then be incubated at room temperature for 45 min, and quenched and developed by addition of 20 ul of 1 to 400 diluted Progressive IMAP binding reagent in 1× proprietary Progressive IMAP binding buffer A. Fluorescence polarization readings of the resulting reaction mixtures may be measured after a 60-minute incubation at room temperature.
IC50 values may be calculated by non-linear curve fitting of the compound concentrations and fluorescent polarization values to the standard IC50 equation.

Sequence of Aurora B/INCENP (Q96GD4 whole entry): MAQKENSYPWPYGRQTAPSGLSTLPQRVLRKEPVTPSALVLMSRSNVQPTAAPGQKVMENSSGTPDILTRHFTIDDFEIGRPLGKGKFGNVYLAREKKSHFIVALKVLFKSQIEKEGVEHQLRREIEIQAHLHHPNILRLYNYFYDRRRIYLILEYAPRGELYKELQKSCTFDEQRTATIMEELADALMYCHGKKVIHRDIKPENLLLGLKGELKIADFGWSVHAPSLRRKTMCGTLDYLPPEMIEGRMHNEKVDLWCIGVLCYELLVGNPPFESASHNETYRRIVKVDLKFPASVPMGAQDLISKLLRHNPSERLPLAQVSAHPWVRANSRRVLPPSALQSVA
Sequence of Aurora B/INCENP (Q9NQS7 whole entry partner): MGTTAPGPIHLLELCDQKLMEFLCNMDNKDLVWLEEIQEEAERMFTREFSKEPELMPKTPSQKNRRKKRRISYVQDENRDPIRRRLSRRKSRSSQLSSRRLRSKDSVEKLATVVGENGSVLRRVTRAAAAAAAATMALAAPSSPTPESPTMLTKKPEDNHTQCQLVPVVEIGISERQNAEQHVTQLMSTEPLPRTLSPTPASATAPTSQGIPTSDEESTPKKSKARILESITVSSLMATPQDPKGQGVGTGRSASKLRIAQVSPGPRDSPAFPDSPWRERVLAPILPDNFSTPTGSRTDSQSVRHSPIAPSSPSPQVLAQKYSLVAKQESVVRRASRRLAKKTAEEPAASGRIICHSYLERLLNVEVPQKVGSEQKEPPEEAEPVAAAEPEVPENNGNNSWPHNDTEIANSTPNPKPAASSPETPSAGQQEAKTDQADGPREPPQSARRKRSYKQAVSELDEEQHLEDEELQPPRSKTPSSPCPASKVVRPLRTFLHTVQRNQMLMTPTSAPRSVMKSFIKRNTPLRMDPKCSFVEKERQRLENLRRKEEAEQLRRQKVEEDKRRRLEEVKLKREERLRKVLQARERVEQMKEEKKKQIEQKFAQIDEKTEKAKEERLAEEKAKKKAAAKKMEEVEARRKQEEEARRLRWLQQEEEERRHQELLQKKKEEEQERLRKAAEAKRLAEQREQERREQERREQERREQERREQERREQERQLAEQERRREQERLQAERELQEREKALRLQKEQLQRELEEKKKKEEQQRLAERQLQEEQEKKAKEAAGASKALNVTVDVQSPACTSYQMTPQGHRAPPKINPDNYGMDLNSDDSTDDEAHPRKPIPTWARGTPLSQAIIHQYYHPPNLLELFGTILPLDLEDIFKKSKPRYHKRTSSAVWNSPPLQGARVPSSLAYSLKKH

| SMILES | IC50 |
| --- | --- |
| CCS(=O)(=O)c1cccc(-c2cnc(OCC3CCN(C)CC3)c3[nH]c4ncc(Cl)cc4c23)c1 [Compound 72, 3-Chloro-5-(3-ethanesulfonyl-phenyl)-8-(1-methyl-piperidin-4-ylmethoxy)-9H-dipyrido[2,3-b;4′,3′-d]pyrrole] | < 4 nM |
| CCSc1ncc(-c2cccc(NC(=O)C3CC3)c2)c2c1[nH]c1ncc(C)cc12 [Compound 79] | > 13 nM |
| CCS(=O)(=O)c1cccc(-c2cc(C(=O)N(C)CCN(C)C)c(C)c3[nH]c4ncc(C)cc4c23)c1 [Compound 91, N-(2-(dimethylamino)ethyl)-N-methyl-5-(3-(ethylsulfonyl)phenyl)-3,8-dimethyl-9H-pyrido[2,3-b]indole-7-carboxamide] | > 13 nM |
| CCS(=O)(=O)c1cccc(-c2cc(C(=O)N3CCN(C)CC3)c(C)c3[nH]c4ncc(C)cc4c23)c1 [Compound 93] | > 13 nM |
| CCS(=O)(=O)c1cccc(-c2cc(C(=O)NCCN3CCNCC3)c(C)c3[nH]c4ncc(C)cc4c23)c1 [Compound 94] | > 13 nM |
| CCS(=O)(=O)c1cccc(-c2cc(C(=O)NCCCN3CCN(C)CC3)c(C)c3[nH]c4ncc(C)cc4c23)c1 [Compound 95, 5-(3-(ethylsulfonyl)phenyl)-3,8-dimethyl-N-(3-(4-methylpiperazin-1-yl)propyl)-9H-pyrido[2,3-b]indole-7-carboxamide] | > 13 nM |
| CCS(=O)(=O)c1cccc(-c2cc(C(=O)N3CCOCC3)c(C)c3[nH]c4ncc(C)cc4c23)c1 [Compound 96] | 8.6 to 13 nM |
| CCS(=O)(=O)c1cccc(-c2cc(C(=O)N3CCC3)c(C)c3[nH]c4ncc(C)cc4c23)c1 [Compound 97, azetidin-1-yl(5-(3-(ethylsulfonyl)phenyl)-3,8-dimethyl-9H-pyrido[2,3-b]indol-7-yl)methanone] | > 13 nM |
| CCS(=O)(=O)c1cccc(-c2cc(C(=O)NC[C@@H](C)O)c(C)c3[nH]c4ncc(C)cc4c23)c1 [Compound 99, (R)-5-(3-(ethylsulfonyl)phenyl)-N-(2-hydroxypropyl)-3,8-dimethyl-9H-pyrido[2,3-b]indole-7-carboxamide] | 8.6 to 13 nM |
| CCS(=O)(=O)c1cccc(-c2cc(C(=O)NCC(C)(C)O)c(C)c3[nH]c4ncc(C)cc4c23)c1 [Compound 103, 5-(3-(ethylsulfonyl)phenyl)-N-(2-hydroxy-2-methylpropyl)-3,8-dimethyl-9H-pyrido[2,3-b]indole-7-carboxamide] | 8.6 to 13 nM |
| CCS(=O)(=O)c1cccc(-c2cc(C(=O)NC3CCN(C(C)C)CC3)c(C)c3[nH]c4ncc(C)cc4c23)c1 [Compound 104, 5-(3-(ethylsulfonyl)phenyl)-N-(1-isopropylpiperidin-4-yl)-3,8-dimethyl-9H-pyrido[2,3-b]indole-7-carboxamide] | 8.6 to 13 nM |
| CCN1CCC(NC(=O)c2cc(-c3cccc(S(=O)(=O)CC)c3)c3c([nH]c4ncc(C)cc43)c2C)CC1 [Compound 105, N-(1-ethylpiperidin-4-yl)-5-(3-(ethylsulfonyl)phenyl)-3,8-dimethyl-9H-pyrido[2,3-b]indole-7-carboxamide] | > 13 nM |
| CCS(=O)(=O)c1cccc(-c2cc(C(=O)NCCOCC(F)(F)F)c(C)c3[nH]c4ncc(C)cc4c23)c1 [Compound 107] | 8.6 to 13 nM |
| CCS(=O)(=O)c1cccc(-c2cc(C(=O)N[C@@H]3CCCNC3)c(C)c3[nH]c4ncc(C)cc4c23)c1 [Compound 108, (R)-5-(3-(ethylsulfonyl)phenyl)-3,8-dimethyl-N-(piperidin-3-yl)-9H-pyrido[2,3-b]indole-7-carboxamide] | > 13 nM |
| CCS(=O)(=O)c1cccc(-c2cc(C(=O)NCCN(C)C)c(C)c3[nH]c4ncc(C)cc4c23)c1 [Compound 113] | 8.6 to 13 nM |

Continued, values first:

| IC50 | SMILES |
| --- | --- |
| 5.6 to 8.5 nM | CCS(=O)(=O)c1cccc(-c2cnc(Oc3ccccc3)c3[nH]c4ncc(C)cc4c23)c1 [Compound 59, 5-(3-Ethanesulfonyl-phenyl)-3-methyl-8-phenoxy-9H-dipyrido[2,3-b;4′,3′-d]pyrrole] |
| 4 to 5.5 nM | CCS(=O)(=O)c1cccc(-c2cnc(OCc3cncs3)c3[nH]c4ncc(C)cc4c23)c1 [Compound 60, 5-(3-Ethanesulfonyl-phenyl)-3-methyl-8-(thiazol-5-ylmethoxy)-9H-dipyrido[2,3-b;4′,3′-d]pyrrole] |
| 5.6 to 8.5 nM | CCN1CCC(COc2ncc(-c3cccc(S(=O)(=O)CC)c3)c3c2[nH]c2ncc(C)cc23)CC1 [Compound 61, 5-(3-Ethanesulfonyl-phenyl)-8-(1-ethyl-piperidin-4-ylmethoxy)-3-methyl-9H-dipyrido[2,3-b;4′,3′-d]pyrrole] |
| 4 to 5.5 nM | CCS(=O)(=O)c1cccc(-c2cnc(OC[C@H](C)O)c3[nH]c4ncc(C)cc4c23)c1 [Compound 62, (S)-1-[5-(3-Ethanesulfonyl-phenyl)-3-methyl-9H-dipyrido[2,3-b;4′,3′-d]pyrrol-8-yloxy]-propan-2-ol] |
| 4 to 5.5 nM | CCS(=O)(=O)c1cccc(-c2cnc(OC[C@@H](C)O)c3[nH]c4ncc(C)cc4c23)c1 [Compound 63, (R)-1-[5-(3-Ethanesulfonyl-phenyl)-3-methyl-9H-dipyrido[2,3-b;4′,3′-d]pyrrol-8-yloxy]-propan-2-ol] |
| 5.6 to 8.5 nM | CCS(=O)(=O)c1cccc(-c2cnc(OCCOC(=O)[C@@H](N)C(C)C)c3[nH]c4ncc(C)cc4c23)c1 [Compound 64, L-Valine-2-[5-(3-ethanesulfonyl-phenyl)-3-methyl-9H-dipyrido[2,3-b;4′,3′-d]pyrrol-8-yloxy]-ethyl ester] |
| 8.6 to 13 nM | CCS(=O)(=O)c1cccc(-c2cnc(OC[C@@H](C)OC(=O)[C@H](C)N)c3[nH]c4ncc(C)cc4c23)c1 [Compound 65, L-Alanine-(R)-2-[5-(3-ethanesulfonyl-phenyl)-3-methyl-9H-dipyrido[2,3-b;4′,3′-d]pyrrol-8-yloxy]-1-methyl-ethyl ester] |
| < 4 nM | CCS(=O)(=O)c1cccc(-c2cnc(OC[C@@H](C)O)c3[nH]c4ncc(Cl)cc4c23)c1 [Compound 73, (R)-1-[3-Chloro-5-(3-ethanesulfonyl-phenyl)-9H-dipyrido[2,3-b;4′,3′-d]pyrrol-8-yloxy]-propan-2-ol] |
| < 4 nM | CCS(=O)(=O)c1cccc(-c2cnc(NC)c3[nH]c4ncc(C)cc4c23)c1 [Compound 74, 2-[5-(3-Ethanesulfonyl-phenyl)-3-methyl-9H-dipyrido[2,3-b;4′,3′-d]pyrrol-8-yl]methyl amine] |
| < 4 nM | CCS(=O)(=O)c1cccc(-c2cnc(SC)c3[nH]c4ncc(C)cc4c23)c1 [Compound 75] |
| 5.6 to 8.5 nM | CCSc1ncc(-c2cccc(S(=O)(=O)CC)c2)c2c1[nH]c1ncc(C)cc12 [Compound 76] |
| 8.6 to 13 nM | CCS(=O)(=O)c1cccc(-c2cc(C(=O)NC3CCN(C)CC3)c(C)c3[nH]c4ncc(C)cc4c23)c1 [Compound 88, 5-(3-(ethylsulfonyl)phenyl)-3,8-dimethyl-N-(1-methylpiperidin-4-yl)-9H-pyrido[2,3-b]indole-7-carboxamide] |
| 8.6 to 13 nM | CCS(=O)(=O)c1cccc(-c2cc(C(=O)NCCNC)c(C)c3[nH]c4ncc(C)cc4c23)c1 [Compound 89, N-(2-(methylamino)ethyl)-5-(3-(ethylsulfonyl)phenyl)-3,8-dimethyl-9H-pyrido[2,3-b]indole-7-carboxamide] |
| 5.6 to 8.5 nM | CCS(=O)(=O)c1cccc(-c2cc(C(=O)NCCOC)c(C)c3[nH]c4ncc(C)cc4c23)c1 [Compound 90, N-(2-(methoxy)ethyl)-5-(3-(ethylsulfonyl)phenyl)-3,8-dimethyl-9H-pyrido[2,3-b]indole-7-carboxamide] |
| 5.6 to 8.5 nM | CCS(=O)(=O)c1cccc(-c2cc(C(=O)N(C)C)c(C)c3[nH]c4ncc(C)cc4c23)c1 [Compound 92, N,N-dimethyl-5-(3-(ethylsulfonyl)phenyl)-3,8-dimethyl-9H-pyrido[2,3-b]indole-7-methylcarboxamide] |
| 5.6 to 8.5 nM | CCS(=O)(=O)c1cccc(-c2cc(C(=O)N3CCSC3)c(C)c3[nH]c4ncc(C)cc4c23)c1 [Compound 98, (5-(3-(ethylsulfonyl)phenyl)-3,8-dimethyl-9H-pyrido[2,3-b]indol-7-yl)(thaiazolidin-3-yl)methanone] |
| 4 to 5.5 nM | CCS(=O)(=O)c1cccc(-c2cc(C(=O)NC[C@H](C)O)c(C)c3[nH]c4ncc(C)cc4c23)c1 [Compound 100, (S)-5-(3-(ethylsulfonyl)phenyl)-N-(2-hydroxypropyl)-3,8-dimethyl-9H-pyrido[2,3-b]indole-7-carboxamide] |
| 4 to 5.5 nM | CCS(=O)(=O)c1cccc(-c2cc(C(=O)NCCO)c(C)c3[nH]c4ncc(C)cc4c23)c1 [Compound 101, 5-(3-(ethylsulfonyl)phenyl)-N-(2-hydroxyethyl)-3,8-dimethyl-9H-pyrido[2,3-b]indole-7-carboxamide] |
| 4 to 5.5 nM | CCS(=O)(=O)c1cccc(-c2cc(C(=O)NCC(O)CO)c(C)c3[nH]c4ncc(C)cc4c23)c1 (stereo not drawn) [Compound 102, N-(2,3-dihydroxypropyl)-5-(3-(ethylsulfonyl)phenyl)-3,8-dimethyl-9H-pyrido[2,3-b]indole-7-carboxamide] |
| 5.6 to 8.5 nM | CCS(=O)(=O)c1cccc(-c2cc(C(=O)Nc3nccs3)c(C)c3[nH]c4ncc(C)cc4c23)c1 [Compound 106] |
| 5.6 to 8.5 nM | CCS(=O)(=O)c1cccc(-c2cc(C(=O)NCCOCCO)c(C)c3[nH]c4ncc(C)cc4c23)c1 [Compound 111] |
